Assay results published in PMC9772252 (Cell chemical biology, 2022).
pKd: −log10 of the molar value.

Target: T1, GPX4 (glutathione peroxidase 4) (Homo sapiens, UniProt P36969, U73C)
T1 sequence (P36969 33-197 U73C): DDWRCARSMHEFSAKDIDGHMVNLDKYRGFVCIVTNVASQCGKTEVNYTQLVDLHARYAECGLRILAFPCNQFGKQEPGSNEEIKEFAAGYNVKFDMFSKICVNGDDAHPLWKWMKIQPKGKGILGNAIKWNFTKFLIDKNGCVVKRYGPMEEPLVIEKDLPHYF
Experiment: SPR
Type: binding

- pKd: 4.22
Compound: COC(=O)c1ccc([C@H]2c3[nH]c4ccccc4c3C[C@H](C(=O)OC)N2C(C)=O)cc1 [RSL3-minus-Cl, Methyl (1S,3R)-2-acetyl-1-(4-(methoxycarbonyl)phenyl)-2,3,4,9-tetrahydro-1H-pyrido[3,4-b] indole-3-carboxylate]
